The values that follow come from ChEMBL document CHEMBL6092136, “Design, classification, and adverse effects of NSAIDs: A review on recent advancements” (Bioorg Med Chem, 2024).

Data set [1] deals with Rattus norvegicus. In words: Antiinflammatory activity in formalin-induced paw edema in Wistar albino rat model assessed as reduction in paw edema volume at 18 mg/kg, po administered once daily via gavage by 7 days. Set-up: scale not given: the % may be the effect or the level left. It counts as functional. The following applies: time 7 day.
A short description of data set [2]: Selectivity index, ratio of IC50 for COX-2 (unknown origin) to IC50 for COX-1 (unknown origin).
The species named for data set [3] is Ovis aries. In words: Selectivity index, ratio of IC50 for inhibition of ovine COX-1 to IC50 for inhibition of ovine COX-2.
The subject of data set [4] is Rattus norvegicus. In words: Acute ulcerogenic activity in Albino Wistar rat assessed as ulcer index at 18 mg/kg via oral gavage once daily for 3 days. It counts as toxicity, organism-based. The following applies: in vivo, 72 h, time 3 day.
Data set [5] is described as follows: Inhibition of soya bean 15-LOX by enzyme immune assay. More on the design: species or system Glycine max.

With `CCCn1c(-c2ccc(Cl)cc2)cs/c1=N\NC(=O)Cn1nc(C)cc1C`, the Activity in data set [1] stood at 97.3%.

As to `COc1ccc2cc(C(C)C(=O)O/N=C(\N)c3ccc(Cl)cc3)ccc2c1` (configuration not stated), in data set [2], the Ratio IC50 was found to be 13.

Take `CCOC(=O)c1cnn(C(=O)c2cnn(-c3ccc(S(C)(=O)=O)cc3)c2N)c1N`: the Ratio IC50 in data set [3] amounted to 247.

For `Cc1cc(C)n(C(=O)c2cnn(-c3ccc(S(C)(=O)=O)cc3)c2N)n1`, the Ratio IC50 in data set [3] turned out to be 247.

Take `COc1ccc(-n2c(-c3ccc(C)cc3)cs/c2=N\NC(=O)Cn2nc(C)cc2-c2ccc(Cl)cc2)cc1`: the UI in data set [4] is 0.

Consider `COc1ccc(/C(N)=N/OC(=O)C(C)c2ccc3cc(OC)ccc3c2)cc1` (configuration not stated), for which the Ratio IC50 in data set [2] came out at 13.

As for `CCOC(=O)c1cnn(C(=O)c2c(C)nn(-c3ccc(S(C)(=O)=O)cc3)c2N)c1N`, in data set [3], the Ratio IC50 was found to be 247.

Take `CSc1nn(C(=O)c2cnn(-c3ccc(S(C)(=O)=O)cc3)c2N)c(N)c1C#N`: in data set [3], the Ratio IC50 amounted to 247.

Consider `COc1ccc2cc(C(C)C(=O)O/N=C(\N)c3ccc(OC)c(OC)c3)ccc2c1` (configuration not stated), for which, in data set [2], the Ratio IC50 is 13.

Turning to `CCOC(=O)c1c(C)nn(C(=O)c2cnn(-c3ccc(S(C)(=O)=O)cc3)c2N)c1N`, the Ratio IC50 in data set [3] was 247.

With `CSc1nn(C(=O)c2c(C)nn(-c3ccc(S(N)(=O)=O)cc3)c2N)c(N)c1C#N`, the Ratio IC50 in data set [3] is 247.

As for `Cc1ccc(Cl)c(Nc2ccccc2C(=O)O)c1Cl`, the IC50 in data set [5] stood at 5.64 µM.
